According to patent US20230096766A1, “AMINO ACID HAVING FUNCTIONAL GROUP CAPABLE OF INTERMOLECULAR HYDROGEN BONDING, PEPTIDE COMPOUND CONTAINING SAME AND METHOD FOR PRODUCTION THEREOF” (Chugai Seiyaku Kabushiki Kaisha, priority 2018, published 2023):
Where two headings read alike, the source gives them in different places. *1 amine or outer side, *2 acyl side, *3 side chain or, on linkers, in order; H or OH if unused. Where a SMILES comes first, the peptide text is derived from it. Bridges are numbered along the chain shown (N, C = ends). [ ]: non-standard residue; d: D form. The star is where a group is joined. ξ: configuration not given here. X1 = COc1cc(C[C@H](N[*:1])C(=O)[*:2])ccc1C(=O)NO; hhPhe = N[C@@H](CCCc1ccccc1)C(=O)O; NMeF = CN[C@@H](Cc1ccccc1)C(=O)O; NMeI = CC[C@H](C)[C@H](NC)C(=O)O; hPhe = N[C@@H](CCc1ccccc1)C(=O)O; 3Pal = N[C@@H](Cc1cccnc1)C(=O)O; NMeD = CN[C@@H](CC(=O)O)C(=O)O; NMeL = CN[C@@H](CC(C)C)C(=O)O; NMeV = CN[C@H](C(=O)O)C(C)C; NMeA = CN[C@@H](C)C(=O)O; Piperidide = C1CCN(*)CC1; NBuGly = CCCCNCC(=O)O; NPrGly = CCCNCC(=O)O; X2 = Fc1cncc(C*)c1; Bn = c1ccc(C*)cc1; ξS = NC(CO)C(=O)O; Sar = CNCC(=O)O; tBu = CC(C)(C)*

Tests used:
[1] = in vitro; settings: human, Caco-2, Caco-2 (cm/sec)
[2] = system: Caco-2

| Compound | Papp [1] [×10⁻⁶ cm/s] | Caco-2 [2] [cm/s] | Caco-2 ([2]; human) [cm/s] | Caco-2 (cm/sec) [2] |
| --- | --- | --- | --- | --- |
| CC(C)C[C@@H]1NC(=O)[C@H](Cc2ccccc2)N(C)C(=O)[C@@H]2CCCN2C(=O)C[C@@H](C(=O)N2CCCCC2)N(C)C(=O)[C@H](Cc2ccccc2)N(C)C(=O)[C@H](Cc2ccccc2)N(C)C(=O)[C@H](COC(C)(C)C)NC(=O)[C@H](C(C)C)N(C)C(=O)CN(C)C(=O)[C@H]([C@@H](C)O)NC(=O)[C@H](CC(C)C)N(C)C1=O [pd196] (P[NMeF]L[NMeL]T[Sar][NMeV]S(tBu)[NMeF][NMeF][NMeD]-Piperidide; lactam N-11) | 4 | 4e-06 |  |  |
| CC[C@H](C)[C@@H]1NC(=O)[C@H](Cc2ccccc2)N(C)C(=O)CN(C)C(=O)C[C@@H](C(=O)N2CCCCC2)NC(=O)[C@H](C)N(C)C(=O)[C@H](CCCc2ccccc2)NC(=O)[C@H](CC(C)C)N(C)C(=O)[C@H](Cc2ccccc2)N(C)C(=O)CN(C)C(=O)[C@H]([C@@H](C)O)NC(=O)[C@H](CC(C)C)N(C)C1=O [pd190] ([Sar][NMeF]I[NMeL]T[Sar][NMeF][NMeL][hhPhe][NMeA]D-Piperidide; lactam N-11) | 1.5 | 1.5e-06 |  |  |
| CCCCN1CC(=O)N(C)[C@@H](CC(C)C)C(=O)N[C@@H](COC(C)(C)C)C(=O)N(C)[C@@H]([C@@H](C)CC)C(=O)N(C)[C@@H](CC(C)C)C(=O)N[C@H](C(=O)N2CCCCC2)CC(=O)N[C@H](C)C(=O)N(C)[C@@H](Cc2ccccc2)C(=O)N[C@@H](Cc2ccc(C(=O)NO)c(OC)c2)C(=O)N(C)[C@@H](CC(C)C)C(=O)N[C@@H]([C@@H](C)O)C1=O [AP258] ([dA][NMeF][X1][NMeL]T[NBuGly][NMeL]S(tBu)[NMeI][NMeL]D-Piperidide; lactam N-11) | 0.03 |  | 2e-08 |  |
| CC(C)C[C@H]1C(=O)N[C@@H](COC(C)(C)C)C(=O)N(C)[C@@H](Cc2ccccc2)C(=O)N(C)[C@@H](C(C)C)C(=O)N[C@H](C(=O)N2CCCCC2)CC(=O)N[C@H](C)C(=O)N(C)[C@@H](Cc2ccccc2)C(=O)NC(COc2cccc(Cl)c2)C(=O)N(C)[C@@H](C(C)C)C(=O)N[C@@H]([C@@H](C)O)C(=O)N(C)CC(=O)N1C (stereo partly shown) [pd185] | 2.2 | 2.2e-06 |  |  |
| CC[C@H](C)[C@@H]1NC(=O)[C@H](Cc2ccccc2)N(C)C(=O)CN(C)C(=O)C[C@@H](C(=O)N2CCCCC2)NC(=O)[C@H]([C@@H](C)CC)N(C)C(=O)C(COCc2ccccc2)NC(=O)[C@H](CC(C)C)N(C)C(=O)[C@H](Cc2ccccc2)N(C)C(=O)CN(C)C(=O)[C@H]([C@@H](C)O)NC(=O)[C@H](CC(C)C)N(C)C1=O (stereo partly drawn) [pd178] ([Sar][NMeF]I[NMeL]T[Sar][NMeF][NMeL][ξS](Bn)[NMeI]D-Piperidide; lactam N-11) | 2.5 | 2.5e-06 |  |  |
| CC(C)C[C@@H]1NC(=O)[C@H](Cc2ccccc2)N(C)C(=O)[C@H](C)N(C)C(=O)C[C@@H](C(=O)N2CCCCC2)NC(=O)[C@H](C(C)C)N(C)C(=O)[C@H](Cc2ccccc2)N(C)C(=O)[C@H](COC(C)(C)C)NC(=O)[C@H](CC(C)C)N(C)C(=O)CN(C)C(=O)[C@H](Cc2cccnc2)NC(=O)[C@H](CC(C)C)N(C)C1=O [pd197] ([NMeA][NMeF]L[NMeL][3Pal][Sar][NMeL]S(tBu)[NMeF][NMeV]D-Piperidide; lactam N-11) | 3 | 3e-06 |  |  |
| CC(C)C[C@H]1C(=O)N[C@@H](CCCc2ccccc2)C(=O)N(C)[C@@H](Cc2ccccc2)C(=O)N(C)[C@@H](C(C)C)C(=O)N[C@H](C(=O)N2CCCCC2)CC(=O)N[C@H](C)C(=O)N(C)[C@@H](Cc2ccccc2)C(=O)N[C@@H](C(C)C)C(=O)N(C)[C@@H](CC(C)C)C(=O)N[C@@H]([C@@H](C)O)C(=O)N(C)CC(=O)N1C [pd193] ([dA][NMeF]V[NMeL]T[Sar][NMeL][hhPhe][NMeF][NMeV]D-Piperidide; lactam N-11) | 1 | 1e-06 |  |  |
| CC(C)C[C@H]1C(=O)N[C@@H]([C@@H](C)O)C(=O)N(C)CC(=O)N(C)[C@@H](Cc2ccccc2)C(=O)N(C)[C@@H](CC(C)C)C(=O)N[C@@H](COC(C)(C)C)C(=O)N(C)[C@@H](CC(C)C)C(=O)N[C@H](C(=O)N2CCCCC2)CC(=O)N(C)CC(=O)N(C)[C@@H](Cc2ccccc2)C(=O)N[C@@H](COCc2ccccc2)C(=O)N1C [pd177] ([Sar][NMeF]S(Bn)[NMeL]T[Sar][NMeF][NMeL]S(tBu)[NMeL]D-Piperidide; lactam N-11) | 3 | 3e-06 |  |  |
| CC[C@H](C)[C@H]1C(=O)N[C@@H]([C@@H](C)O)C(=O)N(C)CC(=O)N(C)[C@@H](CC(C)C)C(=O)N[C@H](C(=O)N2CCCCC2)CC(=O)N(C)[C@@H](C(C)C)C(=O)N[C@@H](COCc2cncc(F)c2)C(=O)N(C)[C@@H](CC(C)C)C(=O)N(C)[C@@H](Cc2ccccc2)C(=O)N[C@@H](CC(C)C)C(=O)N(C)[C@@H](Cc2ccccc2)C(=O)N1C [pd181] ([NMeV]S(X2)[NMeL][NMeF]L[NMeF][NMeI]T[Sar][NMeL]D-Piperidide; lactam N-11) | 1.1 | 1.1e-06 |  |  |
| CC[C@H](C)[C@H]1C(=O)N[C@H](C(=O)N2CCCCC2)CC(=O)N(C)CC(=O)N(C)[C@@H](Cc2ccccc2)C(=O)N[C@@H](CCCc2ccccc2)C(=O)N(C)[C@@H](CC(C)C)C(=O)N[C@@H]([C@@H](C)O)C(=O)N(C)CC(=O)N(C)[C@@H](Cc2ccccc2)C(=O)N(C)[C@@H](CC(C)C)C(=O)N[C@@H](COC(C)(C)C)C(=O)N1C [pd189] ([Sar][NMeF][hhPhe][NMeL]T[Sar][NMeF][NMeL]S(tBu)[NMeI]D-Piperidide; lactam N-11) | 1.8 | 1.8e-06 |  |  |
| CC(C)C[C@H]1C(=O)N(C)[C@@H](Cc2ccccc2)C(=O)N[C@H](C(=O)N2CCCCC2)CC(=O)N(C)[C@@H](C(C)C)C(=O)N[C@@H](C)C(=O)N(C)[C@@H](Cc2ccccc2)C(=O)N(C)[C@@H](CC(C)C)C(=O)N(C)CC(=O)N[C@@H]([C@@H](C)O)C(=O)N(C)[C@@H](C(C)C)C(=O)N[C@@H](CCc2ccccc2)C(=O)N1C [pd182] ([NMeV]A[NMeF][NMeL][Sar]T[NMeV][hPhe][NMeL][NMeF]D-Piperidide; lactam N-11) | 2.6 | 2.6e-06 |  |  |
| CCCN1CC(=O)N(C)[C@@H](Cc2ccccc2)C(=O)N[C@@H]([C@@H](C)CC)C(=O)N(C)[C@@H](Cc2ccccc2)C(=O)N[C@@H]([C@@H](C)O)C(=O)N(C)CC(=O)N(C)[C@@H](Cc2ccccc2)C(=O)N(C)[C@@H](CC(C)C)C(=O)N[C@@H](COC(C)(C)C)C(=O)N(C)[C@@H](C(C)C)C(=O)N[C@H](C(=O)N2CCCCC2)CC1=O [pd195] ([NPrGly][NMeF]I[NMeF]T[Sar][NMeF][NMeL]S(tBu)[NMeV]D-Piperidide; lactam N-11) | 5 | 5e-06 |  |  |
| CC(C)C[C@H]1C(=O)N[C@H](C(=O)N2CCCCC2)CC(=O)N(C)[C@@H](C)C(=O)N[C@@H](CCCc2ccccc2)C(=O)N(C)[C@@H](CC(C)C)C(=O)N(C)[C@@H](Cc2ccccc2)C(=O)N[C@@H](C)C(=O)N(C)[C@@H](Cc2ccccc2)C(=O)N(C)[C@@H](C(C)C)C(=O)N[C@@H]([C@@H](C)O)C(=O)N(C)CC(=O)N1C [pd191] ([NMeA][hhPhe][NMeL][NMeF]A[NMeF][NMeV]T[Sar][NMeL]D-Piperidide; lactam N-11) | 1.5 | 1.5e-06 |  |  |
| CC(C)C[C@@H]1NC(=O)[C@H](Cc2ccccc2)N(C)C(=O)[C@H]2CCCN2C(=O)C[C@@H](C(=O)N2CCCCC2)N(C)C(=O)[C@H](Cc2ccccc2)N(C)C(=O)[C@H](Cc2ccccc2)N(C)C(=O)[C@H](COC(C)(C)C)NC(=O)[C@H](C(C)C)N(C)C(=O)CN(C)C(=O)[C@H]([C@@H](C)O)NC(=O)[C@H](CC(C)C)N(C)C1=O [pd200] ([dP][NMeF]L[NMeL]T[Sar][NMeV]S(tBu)[NMeF][NMeF][NMeD]-Piperidide; lactam N-11) | 2.6 | 2.6e-06 |  |  |
| CC(C)C[C@H]1C(=O)N[C@@H](COC(C)(C)C)C(=O)N(C)[C@@H](Cc2ccccc2)C(=O)N(C)[C@@H](C(C)C)C(=O)N[C@H](C(=O)N2CCCCC2)CC(=O)N[C@H](C(C)C)C(=O)N(C)[C@@H](Cc2ccccc2)C(=O)N[C@@H](COc2cccc(Cl)c2)C(=O)N(C)[C@@H](C)C(=O)N[C@@H]([C@@H](C)O)C(=O)N(C)CC(=O)N1C [pd187] | 1.9 | 1.9e-06 |  |  |
| CC(C)C[C@H]1C(=O)N[C@@H](COC(C)(C)C)C(=O)N(C)[C@@H](Cc2ccccc2)C(=O)N(C)[C@@H](C(C)C)C(=O)N[C@H](C(=O)N2CCCCC2)CC(=O)N[C@H](C(C)C)C(=O)N(C)[C@@H](Cc2ccccc2)C(=O)N[C@@H](COCc2cncc(F)c2)C(=O)N(C)[C@@H](CC(C)C)C(=O)N[C@@H]([C@@H](C)O)C(=O)N(C)CC(=O)N1C [pd180] ([dV][NMeF]S(X2)[NMeL]T[Sar][NMeL]S(tBu)[NMeF][NMeV]D-Piperidide; lactam N-11) | 2.4 |  |  | 2 4E−06 cm/sec |
| CCCN1CC(=O)N(C)[C@@H](CC(C)C)C(=O)N[C@@H](COC(C)(C)C)C(=O)N(C)[C@@H](Cc2ccccc2)C(=O)N(C)[C@@H](Cc2ccccc2)C(=O)N[C@H](C(=O)N2CCCCC2)CC(=O)N[C@H](C)C(=O)N(C)[C@@H](Cc2ccccc2)C(=O)N[C@@H](C(C)C)C(=O)N(C)[C@@H](CC(C)C)C(=O)N[C@@H]([C@@H](C)O)C1=O [pd194] ([dA][NMeF]V[NMeL]T[NPrGly][NMeL]S(tBu)[NMeF][NMeF]D-Piperidide; lactam N-11) | 5.3 | 5.3e-06 |  |  |
| CC[C@H](C)[C@H]1C(=O)N[C@@H]([C@@H](C)O)C(=O)N(C)CC(=O)N(C)[C@@H](CC(C)C)C(=O)N[C@H](C(=O)N2CCCCC2)CC(=O)N(C)[C@@H](C)C(=O)NC(COc2cccc(Cl)c2)C(=O)N(C)[C@@H](CC(C)C)C(=O)N(C)[C@@H](Cc2ccccc2)C(=O)N[C@@H](C)C(=O)N(C)[C@@H](Cc2ccccc2)C(=O)N1C (stereo partly shown) [pd188] | 1.8 | 1.3e-06 | 1.3e-06 |  |
